Source: publication PMC7062083, “Metabolite identification, tissue distribution, excretion and preclinical pharmacokinetic studies of ET-26-HCl, a new analogue of etomidate” (Royal Society Open Science, 2020)
“Also recorded” adds a separate entry of the source.

Columns and labels:
[1] = Pharmacokinetics in beagle dogs after intravenous administration; format: in vivo; conditions: beagle dogs after i.v. ET-26-HCl
Experimental: (§1) Concentrations of ET-26-HCl and ET-26-acid in biological samples were determined by liquid chromatography–tandem mass spectrometry (LC–MS/MS) after deproteinization with methanol. The bioanalytical method for simultaneous quantification of ET-26-HCl and ET-26-acid in the different matrix was fully validated according to FDA guidelines (electronic supplementary material, figure S1 and tables S1 and S2) in our previous study. Briefly, a 100 µl sample (plasma, tissue homogenate, bile, urine and faeces suspension) were spiked with 20 µl of IS solution and vortexed for 30 s. The mixture was then processed for protein precipitation with 300 µl methanol, followed by centrifugation at 12 000 r.p.m. for 5 min. Supernatant was collected and analysed by LC–MS/MS system.
The LC–MS/MS was performed as described previously. Briefly, ET-26-HCl, ET-26-acid and GBP were separated using a CAPCELL PAK C18 column (50 × 2.00 mm, 5.00 µm) as well as a Security Guard Cartridge (C18, 4 mm × 3.00 mm i.d., Phenomenex). The mobile phase consisting of 0.3% formic acid water (A), and methanol (B) was pumped at a flow rate of 0.6 ml min^−1. The gradient elution was achieved according to the following protocol: 0 min to about 0.50 min, A/B (41/9, v/v); 0.51 min to about 1.5 min, A/B (1/9, v/v); and 1.51 min to about 2.00 min, A/B ([…], v/v). Mass spectrometry was conducted on an API 3000 mass spectrometer (Sciex, Framingham, MA, USA) equipped with an electrospray ionization (ESI) source operating in positive mode. The MS/MS system was in the multiple reaction monitoring (MRM) mode, using the m/z transitions of 275.6/170.9 for ET-26-HCl, 217.7/113.1 for ET-26-acid and 172.5/154.3 for GBP (IS), respectively. The API 3000 mass parameters were set according to the following protocol: curtain gas, 6 psi; collision gas, 8 psi; nebulizer, 4 psi; ion spray voltage, 3000 V and ion source temperature, 450°C. The autosampler was conditioned at 4°C, and the injection volume was 5 µl. The linear ranges of this analytical method for ET-26-HCl and for ET-26-acid from all biological samples are shown in electronic supplementary material, table S3.
Beagle dogs, weighing 9–11 kg, were purchased from Sichuan Industrial of Antibiotics, China National Pharmaceutical Group Corporation (Chengdu, China). A 3 × 3 crossover experimental design with 24 beagles (equal number of male and female dogs) randomly divided into six groups was conducted. Beagle dogs in the six groups received three doses of ET-26-HCl: 1.045 mg kg^−1, 2.090 mg kg^−1 and 4.180 mg kg^−1 as low (L), medium (M) and high (H) dose. Blood samples (2 ml) were collected from the elbow vein in 4 ml heparinized tubes before dosing, and at 1, 3, 5, 10, 20, 30, 120 and 180 min post-dosing. All blood samples were centrifuged at 8000 r.p.m. for 10 min and plasma collected and stored at −80°C until analysis.
All calculations were performed on Microsoft Excel 2016 (Microsoft Co., USA). The Drug and Statistics 3.2.7 (DAS 3.2.7) software package (Mathematical Pharmacology Professional Committee of China, China) was used to acquire the main pharmacokinetic parameters of ET-26-HCl. All data were shown as mean ± standard deviation (s.d.). Statistical significances were calculated by one-way analysis of variance (ANOVA).

[2] = Tissue distribution in Sprague Dawley rats; format: in vivo; conditions: i.v. 4.2 mg kg^−1 ET-26-HCl
Experimental: as §1
Sprague Dawley (SD) rats (200–240 g) were provided by the Animal Facility at Sichuan University (Chengdu, China). All rats received a single 4.2 mg kg^−1 dose of ET-26-HCl intravenously. Rats were sacrificed and tissues, including heart, spleen, lung, intestine, colon, kidney, brain, fat, stomach, liver, muscle, testis and ovary were collected at 0, 1, 3, 6 and 10 h post-dosing (six rats/time-point). Tissue samples were rinsed thrice in ice cold saline, and blotted dry with filter papers. Weighed amount of tissues were homogenized in normal saline (thrice the tissue weight, w/v) and homogenates were stored at −80°C until analysis.

[3] = Excretion (urine, faeces, bile) in Sprague Dawley rats; format: in vivo
Experimental: as §1
SD rats (4 male and 4 female) received 4.2 mg kg^−1 of ET-26-HCl intravenously and were housed in metabolic cages. Urine and faeces from the treated rats were collected between 0–6, 6–12, 12–24, 24–30, 30–36 and 36–48 h post-dosing. Urine volume and faeces weight were measured and recorded.
Bile fistulas of SD rats (four male and four female) were cannulated with polyethylene tube (Instech Laboratories, Inc., USA) and bile was collected at the following time-points: 0–3, 3–6, 6–9, 9–12 and 12–24 h post-dosing. The volume of the collected bile was measured and stored at −80°C until analysis.

[4] = Stability in beagle plasma (LC-MS/MS); format: in vitro ADME
Experimental: as §1

[5] = rats, i.v. ET-26-HCl; cited from earlier work
[6] = Identification of major metabolites in liver microsomes (UPLC-Q-TOF-MS); format: in vitro ADME, mouse, rat, beagle dog, monkey and human; conditions: 10 µM ET-26-HCl, 1 mg ml^−1 liver microsomes, NADPH, 1 h
Experimental: The major metabolites of ET-26-HCl in liver microsomes from mouse, rat, beagle dog, monkey and human were determined by the UPLC-Q-TOF-MS system.
Reaction mixture containing 10 µM ET-26-HCl, […] MgCl2 and 1 mg ml^−1 liver microsomes in Tris-HCl phosphate buffer (pH 7.4) was pre-incubated for 6 min at 37°C, followed by the addition of NADPH. After incubation for 1 h, methanol was added to stop the reaction. Samples were centrifuged at 11 000 r.p.m. for 5 min; supernatants were collected and air dried at 40°C. Residues were dissolved in 100 µl acetonitrile/water (1:1, v/v) and analysed by the UPLC-Q-TOF-MS.
The UPLC-Q-OF-MS system was equipped with a Waters Synapt G2-Si quadrupole time-of-flight mass spectrometer (Q-TOF-MS), an ESI source and an ACQUITY UPLC H-CLASS liquid chromatography system. The chromatographic separations were achieved on an ACQUITY UPLC BEH C18 column (2.1 × 100 mm, i.d. 1.7 µm, Waters, USA) kept at 45°C and a flow rate of 0.4 ml min^−1. The mobile phase consisted of 5 mM ammonium acetate with 0.1% formic acid (A) and acetonitrile with 0.1% formic acid (B). The optimized gradient elution programme followed was 0 min to 2.1 min, A/B (19/1, v/v); 2.1 min to 7.3 min, A/B (1/4, v/v); 7.3 min to 8.0 min, A/B (1/9, v/v); and 8.0 min to 10 min, A/B (19/1, v/v). The injection volume was 5 µl. The mass experiment was operated in positive ion modes under the following parameters: turbo spray temperature, 120°C; ion spray voltage, 3.0 kV. Nitrogen was used as the nebulizer and the auxiliary gas; meanwhile, the nebulizer gas was set to 650 l h^−1 and kept at 350°C. The collision energy was set at 5–10 V and the collision energy spread was 4–6 V. TOF-MS was scanned with the mass range of m/z 50–600 with 200 ms accumulation time. A 400 ng ml^−1 leu-enkephalin (m/z 556.2771) was selected as an external standard for mass–charge ratio correction at a flow rate of 5 µl min^−1.

[7] = i.v. ET-26-HCl 4.2 mg kg^−1, collected to 48 h

| Structure (SMILES) | plasma concentration of ET-26-acid (in words) [1] | time for clearance from tissues [2] | tissues with the highest concentration [2] | accumulative excretion through bile ([3]; i.v. ET-26-HCl 4.2 mg kg^−1, bile collected to 24 h) [%] | accumulative excretion through faeces [3, 7] [%] | accumulative excretion through urine [3, 7] [%] | Measured concentration (Mean ± SD) ([4]; 4◦C for 3 h, nominal 38.24 ng/mL) [ng/mL] | Measured concentration (Mean ± SD) ([4]; 4◦C for 3 h, nominal 3186 ng/mL) [ng/mL] | Measured concentration (Mean ± SD) ([4]; Freeze and Thaw Cycle (3), nominal 38.24 ng/mL) [ng/mL] | Measured concentration (Mean ± SD) ([4]; Freeze and Thaw Cycle (3), nominal 3186 ng/mL) [ng/mL] | Measured concentration (Mean ± SD) ([4]; Room temperature 3 h, nominal 38.24 ng/mL) [ng/mL] | Measured concentration (Mean ± SD) ([4]; Room temperature 3 h, nominal 3186 ng/mL) [ng/mL] | Measured concentration (Mean ± SD) ([4]; –80 ◦C for 30 days, nominal 38.24 ng/mL) [ng/mL] | Measured concentration (Mean ± SD) ([4]; –80 ◦C for 30 days, nominal 3186 ng/mL) [ng/mL] | plasma exposure of metabolite relative to parent (in words) [5] | source (liver microsomes) in which detected [6] |
| --- | --- | --- | --- | --- | --- | --- | --- | --- | --- | --- | --- | --- | --- | --- | --- | --- |
| C[C@H](c1ccccc1)n1cncc1C(=O)O [ET-26-acid] | almost non-detectable; also recorded: almost undetectable | around 3 h | plasma and liver | 0.027 | 0.080 | 12.49 | 39.92 ± 2.904 | 2890 ± 174.8 | 36.23 ± 2.568 | 2770 ± 157.7 | 38.29 ± 4.088 | 2890 ± 117.6 | 35.84 ± 1.899 | 3049 ± 391.4 | higher plasma exposure than the parent drug |  |
| C[C@H](c1ccccc1)n1cncc1C(=O)OCCO [M2] |  |  |  |  |  |  |  |  |  |  |  |  |  |  |  | every liver microsomal preparation; also recorded: human, monkey, dog, rat, mouse |
